Source: article PMC10683025, “Discovery of a Hydroxylamine-Based Brain-Penetrant EGFR Inhibitor for Metastatic Non-Small-Cell Lung Cancer” (Journal of Medicinal Chemistry, 2023)
Converted amounts (≈) assume the structure as drawn. Read-outs that look alike come from different tables or passages of the source. Values belong to the molecule of their own block, whether it stands above or below them.

Experiments:
[1] = set-up: method as in ref 56−59; conditions: ref 56−59; cited from earlier work
P-gp and BCRP = test system: P-gp and BCRP; set-up: method as in ref 17−20; conditions: ref 17−20; cited from earlier work
[2] = test system: A431 cell line (overexpressed EGFRwt); experiment: CellTiter-Glo cell viability assay; assay type: cell-based, human; conditions: 72 h, unadjusted for FBS
Experimental: (§1) The A431, HCC827, SK-BR-3, ZR-75–30, AU565, and Caco-2 cell lines were obtained from ATCC. The NCI-H1975 cell line was obtained from SIBS. The NCI-H3255 cell line was obtained from CoBioer. Engineered Ba/F3 cell lines were obtained from Crown Bioscience. MCKII-MDR1 cells were obtained from The Netherlands Cancer Institute. HEK293 cells were obtained from Invitrogen. A431 cells were cultured in DMEM (Life Technologies) with 10% FBS. HCC827, NCI-H1975, and AU565 cells were cultured in RPMI1640 (Invitrogen) with 10% FBS. NCI-H3255 cells were cultured in BEGM (Lonza) with 10% FBS. Ba/F3 EGFR-del E746_A750/C797S and Ba/F3 EGFR-L858R/C797S cells were cultured in RPMI (Invitrogen) with 10% FBS. SK-BR-3 cells were cultured in McCoy’s 5a (Invitrogen) with 10% FBS. ZR-75-30 cells were cultured in RPMI1640 (Invitrogen) with 20% FBS. Caco-2 and MCKII-MDR1 culture information is given in the Permeability Studies section. HEK293 cells were cultured in DMEM (Gibco) with 10% FBS, 0.1 mM NEAA, 25 mM HEPES, 100 U/mL penicillin-streptomycin, μg/mL blasticidin, and 400 μg/mL Geneticin. All cells were cultured in a humidified incubator with 5% CO2 at 37 °C.
(§2) Viability assays using A431, HCC827, NCI-H1975, NCI-H3255, Ba/F3 EGFR-del E746_A750/C797S, Ba/F3 EGFR-L858R/C797S, AU565, SK-BR-3, and ZR-75-30 cells were performed at Crown BioScience. Cells were plated into 96-well plates at 1500–7000 cells per well and dosed in triplicate (n = 3) in a nine-point, 4-fold dilution series with compounds (0.15 nM to 10 μM) in DMSO and incubated for 72 h. After 72 h, cell viability was assayed by CellTiter-Glo Luminescent Viability Assay (Promega). Dose–response curves were generated and used to calculate the IC50 values which were calculated on GraphPad Prism from the nonlinear regression equation fitted with a sigmoidal dose response and are presented as mean ± SEM.

[3] = test system: ZR-75-30 (HER2-positive breast cancer); experiment: CellTiter-Glo cell viability assay; assay type: cell-based, human; conditions: 72 h, unadjusted for FBS
Experimental: as §1, §2

[4] = test system: AU565 (HER2-positive breast cancer); experiment: CellTiter-Glo cell viability assay; assay type: cell-based, human; conditions: 72 h, unadjusted for FBS
Experimental: as §1, §2

[5] = test system: NCI-H1975 (EGFR mutation = L858R/T790M); experiment: CellTiter-Glo cell viability assay; assay type: cell-based, human; conditions: 72 h, unadjusted for FBS
Experimental: as §1, §2

[6] = test system: SK-BR-3 (HER2-positive breast cancer); experiment: CellTiter-Glo cell viability assay; assay type: cell-based, human; conditions: 72 h, unadjusted for FBS
Experimental: as §1, §2

[7] = test system: HCC827 (EGFR mutation = exon19del); experiment: CellTiter-Glo cell viability assay; assay type: cell-based, human; conditions: 72 h, unadjusted for FBS
[8] = test system: NCI-H3255 (EGFR mutation = L858R); experiment: CellTiter-Glo cell viability assay; assay type: cell-based, human; conditions: 72 h, unadjusted for FBS
[9] = test system: Ba/F3 EGFR-L858R/C797S cells; experiment: CellTiter-Glo cell viability assay; assay type: cell-based; conditions: 72 h, unadjusted for FBS
Experimental: as §1, §2

[10] = test system: Ba/F3 EGFR-del E746_A750/C797S cells; experiment: CellTiter-Glo cell viability assay; assay type: cell-based; conditions: 72 h, unadjusted for FBS
Experimental: as §1, §2

EGFRwt [11] = target: T1, EGFRwt (Homo sapiens, UniProt P00533); experiment: KinaseProfiler enzymatic radiometric assay; assay type: biochemical; conditions: wt, ATP 10 μM; read-out: EGFR IC50
T1 construct: purchased Eurofins DiscoverX (contract assay)
T1 sequence (P00533 25-1210): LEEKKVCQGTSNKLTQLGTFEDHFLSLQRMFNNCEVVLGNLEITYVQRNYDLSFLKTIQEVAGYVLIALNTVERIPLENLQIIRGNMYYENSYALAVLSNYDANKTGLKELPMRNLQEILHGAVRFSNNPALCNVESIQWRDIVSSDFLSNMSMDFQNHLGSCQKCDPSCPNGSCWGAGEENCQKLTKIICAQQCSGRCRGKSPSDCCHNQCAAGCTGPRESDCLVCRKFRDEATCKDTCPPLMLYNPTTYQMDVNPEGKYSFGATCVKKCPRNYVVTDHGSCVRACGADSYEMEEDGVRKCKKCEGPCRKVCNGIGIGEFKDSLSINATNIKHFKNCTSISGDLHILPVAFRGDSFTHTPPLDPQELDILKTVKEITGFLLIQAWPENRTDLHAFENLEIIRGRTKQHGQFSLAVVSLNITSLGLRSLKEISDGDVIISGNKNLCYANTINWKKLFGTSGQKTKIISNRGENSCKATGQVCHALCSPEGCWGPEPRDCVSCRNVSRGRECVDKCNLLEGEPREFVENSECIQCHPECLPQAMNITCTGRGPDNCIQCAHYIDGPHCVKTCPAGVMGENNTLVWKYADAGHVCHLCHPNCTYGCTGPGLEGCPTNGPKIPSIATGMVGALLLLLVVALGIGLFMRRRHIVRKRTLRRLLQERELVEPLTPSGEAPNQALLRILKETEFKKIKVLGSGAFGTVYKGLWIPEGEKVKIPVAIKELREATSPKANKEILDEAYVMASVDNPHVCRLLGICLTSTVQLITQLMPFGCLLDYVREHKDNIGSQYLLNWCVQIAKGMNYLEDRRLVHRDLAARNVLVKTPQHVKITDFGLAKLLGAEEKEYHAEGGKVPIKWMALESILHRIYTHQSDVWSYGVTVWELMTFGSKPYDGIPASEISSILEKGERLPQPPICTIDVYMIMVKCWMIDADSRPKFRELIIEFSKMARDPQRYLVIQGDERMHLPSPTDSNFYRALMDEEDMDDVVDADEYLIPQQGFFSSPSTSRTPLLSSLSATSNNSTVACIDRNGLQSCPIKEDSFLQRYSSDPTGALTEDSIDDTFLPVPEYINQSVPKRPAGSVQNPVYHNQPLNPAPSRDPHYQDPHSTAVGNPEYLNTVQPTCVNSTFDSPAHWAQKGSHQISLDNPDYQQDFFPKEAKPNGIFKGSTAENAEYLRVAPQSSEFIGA

EGFRL858R [12] = target: T2, EGFRL858R (Homo sapiens, UniProt P00533, L858R); experiment: KinaseProfiler enzymatic radiometric assay; assay type: biochemical; set-up: purchased Eurofins Cerep (KinaseProfiler, contract assay); conditions: ATP 10 μM, read-out: EGFR IC50
T2 sequence (P00533 25-1210 L858R): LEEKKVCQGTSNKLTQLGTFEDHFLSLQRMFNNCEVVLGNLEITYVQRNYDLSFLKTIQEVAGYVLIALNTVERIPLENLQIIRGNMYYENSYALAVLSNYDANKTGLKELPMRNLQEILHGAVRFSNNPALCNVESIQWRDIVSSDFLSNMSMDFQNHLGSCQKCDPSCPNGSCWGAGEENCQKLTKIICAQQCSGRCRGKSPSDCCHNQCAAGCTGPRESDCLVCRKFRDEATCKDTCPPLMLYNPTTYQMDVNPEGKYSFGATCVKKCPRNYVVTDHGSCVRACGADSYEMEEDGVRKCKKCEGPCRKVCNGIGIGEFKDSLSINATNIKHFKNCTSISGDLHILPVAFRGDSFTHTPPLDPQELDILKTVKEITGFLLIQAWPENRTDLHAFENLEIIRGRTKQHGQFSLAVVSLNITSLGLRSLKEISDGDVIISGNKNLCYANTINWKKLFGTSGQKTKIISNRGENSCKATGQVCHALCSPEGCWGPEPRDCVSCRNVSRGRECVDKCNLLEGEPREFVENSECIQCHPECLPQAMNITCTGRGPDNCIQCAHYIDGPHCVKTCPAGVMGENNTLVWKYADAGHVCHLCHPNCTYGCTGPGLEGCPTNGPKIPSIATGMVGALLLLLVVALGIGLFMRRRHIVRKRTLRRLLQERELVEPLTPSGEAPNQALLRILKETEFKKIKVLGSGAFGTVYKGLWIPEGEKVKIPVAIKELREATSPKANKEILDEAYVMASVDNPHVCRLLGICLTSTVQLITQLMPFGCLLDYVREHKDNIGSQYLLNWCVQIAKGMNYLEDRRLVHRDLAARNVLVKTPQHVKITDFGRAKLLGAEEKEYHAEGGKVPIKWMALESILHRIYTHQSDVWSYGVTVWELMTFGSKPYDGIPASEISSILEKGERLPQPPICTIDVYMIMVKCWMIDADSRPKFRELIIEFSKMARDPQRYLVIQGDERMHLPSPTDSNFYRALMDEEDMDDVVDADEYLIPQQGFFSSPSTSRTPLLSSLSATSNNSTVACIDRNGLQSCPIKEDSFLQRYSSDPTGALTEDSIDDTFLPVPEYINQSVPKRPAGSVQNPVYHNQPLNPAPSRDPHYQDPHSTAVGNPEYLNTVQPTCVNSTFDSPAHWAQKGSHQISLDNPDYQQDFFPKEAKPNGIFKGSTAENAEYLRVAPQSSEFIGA

Solubility assay = assay type: physicochemical; conditions: buffer, pH 7.4, aqueous buffer; read-out: Aq. Sol.
Experimental: Solubility was determined by Pharmaron, Inc. and each compound was assessed in duplicate (n = 2) by adding 15 μL of compound stock solution (10 mM in DMSO) into a 96-well plate along with 485 μL of buffer followed by shaking at 25 °C, 1100 rpm for 2 h. Wells were filtered, and samples (5 μL) were taken followed by dilution with an equal volume of DMSO (5 μL) and 490 μL of aqueous solution. Samples were analyzed by LC-MS/MS.

Caco-2 permeability = assay type: in vitro ADME; conditions: human; for recovery at 2 h, 5 μM: Caco-2, Caco-2
MDR1 = experiment: MDCKII-MDR1 permeability; assay type: in vitro ADME, canine; conditions: dog, MDCK-MDR1
MDCKII-MDR1 permeability = assay type: in vitro ADME, canine; conditions: dog, MDCK-MDR1, MDCKII-MDR1
[13] = Metabolic stability in liver microsomes; assay type: in vitro ADME, human; conditions: for Remaining Percentage: human LM
EGFRL858R [14] = target: T2, EGFRL858R; experiment: KINOMEScan KdELECT Kd determination; assay type: binding; set-up: purchased Eurofins DiscoverX (contract assay); conditions: L858R
EGFR del E746_A750 = target: T3, EGFR del E746_A750 (Homo sapiens, UniProt P00533, DEL746-750); experiment: KINOMEScan KdELECT Kd determination; assay type: binding
T3 construct: purchased Eurofins DiscoverX (contract assay)
T3 sequence (P00533 with tags, fused parts or gaps DEL746-750): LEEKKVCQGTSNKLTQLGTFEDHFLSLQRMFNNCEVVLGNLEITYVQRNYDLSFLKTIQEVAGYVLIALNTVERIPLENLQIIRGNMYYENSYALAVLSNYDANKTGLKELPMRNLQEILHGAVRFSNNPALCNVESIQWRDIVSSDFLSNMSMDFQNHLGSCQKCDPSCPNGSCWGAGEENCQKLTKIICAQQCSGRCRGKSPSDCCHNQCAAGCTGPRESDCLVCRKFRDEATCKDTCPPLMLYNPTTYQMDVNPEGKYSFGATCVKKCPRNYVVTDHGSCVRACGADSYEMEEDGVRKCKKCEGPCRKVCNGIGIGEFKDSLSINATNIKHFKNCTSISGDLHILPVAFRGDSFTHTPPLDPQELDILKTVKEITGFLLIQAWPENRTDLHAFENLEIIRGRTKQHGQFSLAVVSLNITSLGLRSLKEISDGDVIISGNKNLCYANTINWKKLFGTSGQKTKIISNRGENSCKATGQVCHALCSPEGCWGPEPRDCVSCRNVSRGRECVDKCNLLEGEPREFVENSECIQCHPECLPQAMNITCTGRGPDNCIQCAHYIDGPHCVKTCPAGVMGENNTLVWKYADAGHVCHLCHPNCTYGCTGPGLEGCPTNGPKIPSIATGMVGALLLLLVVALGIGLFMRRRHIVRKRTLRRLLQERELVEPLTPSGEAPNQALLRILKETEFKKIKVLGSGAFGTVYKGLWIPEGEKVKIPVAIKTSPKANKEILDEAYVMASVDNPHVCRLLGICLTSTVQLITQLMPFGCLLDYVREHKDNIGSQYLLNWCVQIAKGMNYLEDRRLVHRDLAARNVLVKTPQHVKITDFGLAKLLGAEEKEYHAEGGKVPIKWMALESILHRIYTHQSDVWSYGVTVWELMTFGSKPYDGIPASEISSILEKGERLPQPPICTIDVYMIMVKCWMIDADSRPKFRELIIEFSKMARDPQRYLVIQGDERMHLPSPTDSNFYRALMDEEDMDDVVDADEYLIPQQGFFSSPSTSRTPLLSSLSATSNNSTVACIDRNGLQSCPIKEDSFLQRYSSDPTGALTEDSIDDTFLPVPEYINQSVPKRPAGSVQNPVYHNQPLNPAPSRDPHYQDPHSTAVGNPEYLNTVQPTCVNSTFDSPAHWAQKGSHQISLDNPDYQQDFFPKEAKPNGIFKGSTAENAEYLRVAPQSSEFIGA

[15] = Metabolic stability in liver microsomes; assay type: in vitro ADME, Sprague-Dawley rat; conditions: for Remaining Percentage: rat LM
[16] = Lipophilicity, shake-flask; assay type: physicochemical; conditions: 1-octanol/PBS; 1-octanol and PBS (pH 7.4); read-out: logD7.4
Experimental: Compound lipophilicity was determined by Pharmaron, Inc. using the shake-flask method with 1-octanol and PBS (pH 7.4). Each compound was assessed in duplicate (n = 2) at 1 μM in a 96-well plate shaken at 25 °C and 2000 rpm for 2 h. Samples were analyzed by liquid chromatography and tandem mass spectrometry (LC-MS/MS).

EGFRwt [17] = target: T1, EGFRwt; experiment: KINOMEScan KdELECT Kd determination; assay type: binding; conditions: wt; read-out: EGFR Kd
[18] = Brain tissue binding by equilibrium dialysis; assay type: in vitro ADME; conditions: rat
Experimental: (§3) Plasma protein binding and brain tissue binding were determined by Pharmaron, Inc. using the equilibrium dialysis method. […] Following incubation, the samples were analyzed by LC-MS/MS and the concentrations of the compounds were determined in the buffer and plasma solution chambers.

[19] = Brain tissue binding by equilibrium dialysis; assay type: in vitro ADME, mouse; conditions: CD-1, mouse
Experimental: as §3

Compound: COc1cc2ncnc(Nc3cccc(Cl)c3F)c2cc1OC(=O)N1CCN(C)C[C@H]1C [AZD3759]
Kp,uu brain (AUC0-7h) [1]: 1.3

Compound: CN(C)C/C=C/C(=O)Nc1cc2c(Nc3ccc(F)c(Cl)c3)ncnc2cc1O[C@H]1CCOC1 [Afatinib]
efflux status against common efflux transporters (P-gp and BCRP): P-gp and BCRP Substrate

Compound: N.N.[Cl][Pt][Cl] [Cisplatin, reference compound]
IC50 [2]: 4150 nM | IC50 [3]: 4180 nM | IC50 [4]: 2570 nM | IC50 [5]: 8800 nM | IC50 [6]: 1960 nM | IC50 [7]: > 10000 nM | IC50 [8]: > 10000 nM | IC50 [9]: 411 ± 10 nM | IC50 [10]: 361 ± 15 nM

IC50 (EGFRwt [11]): 3 nM | IC50 (EGFRL858R [12]): 2 nM | solubility kinetic at 2 h (Solubility assay): 18 µM (≈ 8.31 µg/mL) | efflux ratio at 2 h, 5 µM (Caco-2 permeability; Caco-2): 20.2 | efflux ratio at 2 h, 5 μM (Caco-2 permeability; Caco-2): 19.3 | recovery at 2 h, 5 μM (Caco-2 permeability; read-out: Recovery% (AP-BL)): 63.3% | recovery at 2 h, 5 μM (Caco-2 permeability; read-out: Recovery% (BL-AP)): 72.3% | Papp A→B at 2 h, 5 µM (Caco-2 permeability; Caco-2, 5 μM, 2 h): 0.6 ×10⁻⁶ cm/s | Papp A→B at 2 h, 5 μM (Caco-2 permeability; Caco-2, 5 μM, 2 h): 0.63 ×10⁻⁶ cm/s | Papp B→A at 2 h, 5 µM (Caco-2 permeability; Caco-2, 5 μM, 2 h): 12.1 ×10⁻⁶ cm/s | efflux ratio at 2 h, 1 µM (MDR1): 8.7 | efflux ratio at 2 h, 1 μM (MDR1): 8.65 | Papp A→B at 2 h, 1 µM (MDR1; 1 μM, 2 h): 1.4 ×10⁻⁶ cm/s | Papp A→B at 2 h, 1 μM (MDR1; 1 μM, 2 h): 1.35 ×10⁻⁶ cm/s | Papp B→A at 2 h, 1 µM (MDR1; 1 μM, 2 h): 11.7 ×10⁻⁶ cm/s | Papp B→A at 2 h, 1 μM (MDR1; 1 μM, 2 h): 11.7 ×10⁻⁶ cm/s | recovery at 2 h, 1 μM (MDCKII-MDR1 permeability; read-out: Recovery% (AP-BL)): 58.6% | recovery at 2 h, 1 μM (MDCKII-MDR1 permeability; read-out: Recovery% (BL-AP)): 76.1% | Remaining Percentage ([13]; +Cofactors, 15 min): 60.04% | Remaining Percentage ([13]; +Cofactors, 30 min): 39.49% | Remaining Percentage ([13]; +Cofactors, 45 min): 24.83% | Remaining Percentage ([13]; +Cofactors, 60 min): 20.34% | Remaining Percentage ([13]; -Cofactors, 60 min): 95.02% | half-life at 1 h, 1 µM ([13]; human, liver microsomes, read-out: LM t1/2): 25.4 min | microsomal CLint at 1 h, 1 µM ([13]; human, liver microsomes, read-out: LMClint): 55 µL/min/mg | IC50 ([7]; Homo sapiens, HCC827): 15 nM | Kd (EGFRL858R [14]): 0.6 nM | IC50 ([8]; Homo sapiens, NCI-H3255): 37 nM | Kd (EGFR del E746_A750): 0.4 nM | half-life at 1 h, 1 µM ([15]; Sprague-Dawley, rat, liver microsomes, read-out: LM t1/2): 22.4 min | microsomal CLint at 1 h, 1 µM ([15]; Sprague-Dawley, rat, liver microsomes, read-out: LMClint): 62 µL/min/mg | Remaining Percentage ([15]; +Cofactors, 15 min): 58.02% | Remaining Percentage ([15]; +Cofactors, 30 min): 32.28% | Remaining Percentage ([15]; +Cofactors, 45 min): 22.82% | Remaining Percentage ([15]; +Cofactors, 60 min): 15.90% | Remaining Percentage ([15]; -Cofactors, 60 min): 97.68% | logD at 2 h, 1 µM [16]: 3.3 | Kd (EGFRwt [17]): 0.8 nM
Compound: COc1cc2ncnc(Nc3ccc(F)c(Cl)c3)c2cc1OCCON1CCN(C)CC1 [Compound 8, N-(3-Chloro-4-fluorophenyl)-7-methoxy-6-(2-((4-methylpiperazin-1-yl)oxy)ethoxy)quinazolin-4-amine]

Compound: COc1cc2ncnc(Nc3ccc(F)c(Cl)c3)c2cc1NC(=O)/C=C/CN1CCCCC1 [Dacomitinib]
efflux status against common efflux transporters (P-gp and BCRP): P-gp and BCRP Substrate

Compound: C#Cc1cccc(Nc2ncnc3cc(OCCOC)c(OCCOC)cc23)c1 [Erlotinib]
efflux status against common efflux transporters (P-gp and BCRP): P-gp and BCRP Substrate

Compound: Fc1c(Br)cccc1Nc1ncnc2cc3c(cc12)OCCO3 [JCN037]
Kp,uu brain (AUC0-7h) [1]: 1.3

Compound: C=CC(=O)Nc1cc(Nc2nccc(-c3cn(C)c4ccccc34)n2)c(OC)cc1N(C)CCN(C)C [Osimertinib]
efflux status against common efflux transporters (P-gp and BCRP): Moderate P-gp and BCRP Substrate

Compound: CCCc1nc2c(C)cc(-c3nc4ccccc4n3C)cc2n1Cc1ccc(-c2ccccc2C(=O)O)cc1 [Telmisartan, reference compound]
recovery at 6 h, 5 μM ([18]; Sprague-Dawley (SD), rat brain homogenate): 107% | fraction unbound at 6 h, 5 μM ([18]; Sprague-Dawley, brain homogenate, read-out: fu,brain% / %Unboundbrain): 0.0146 | remaining at 6 h, 5 μM ([18]; Sprague-Dawley, rat brain homogenate): 100% | fraction unbound at 6 h, 5 μM ([18]; Sprague-Dawley, rat brain homogenate, read-out: %Boundbrain (converted)): 0.0146 | fraction unbound at 6 h, 5 μM ([19]; brain homogenate, read-out: fu,brain% / %Unboundbrain): 0.0143 | recovery at 6 h, 5 μM ([19]; mouse brain homogenate): 109% | remaining at 6 h, 5 μM ([19]; mouse brain homogenate): 108% | fraction unbound at 6 h, 5 μM ([19]; mouse brain homogenate, read-out: %Unboundbrain (converted)): 0.0143
